Results as given in PubChem BioAssay (NCI).
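Results reflect a 48-hour exposure of cells in 96-well plates to compound at five concentrations. GI50 is the concentration that inhibits growth by half. TGI: total growth inhibition.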

What was measured:
Experiment in all cases: NCI tumour cell line growth inhibition, 48 h
SR leukemia = test system: SR leukemia
PC-3 prostate = test system: PC-3 prostate
TK-10 renal = test system: TK-10 renal
A549 NSCLC = test system: A549 NSCLC
RXF 393 renal = test system: RXF 393 renal
NCI/ADR-RES ovarian = test system: NCI/ADR-RES ovarian
UO-31 renal = test system: UO-31 renal
OVCAR-3 ovarian = test system: OVCAR-3 ovarian
HL-60(TB) leukemia = test system: HL-60(TB) leukemia
SK-OV-3 ovarian = test system: SK-OV-3 ovarian
BT-549 breast = test system: BT-549 breast
SK-MEL-5 melanoma = test system: SK-MEL-5 melanoma
CAKI-1 renal = test system: CAKI-1 renal
EKVX NSCLC = test system: EKVX NSCLC
OVCAR-4 ovarian = test system: OVCAR-4 ovarian
HS 578T breast = test system: HS 578T breast
HCT-116 colon = test system: HCT-116 colon
LOX IMVI melanoma = test system: LOX IMVI melanoma
NCI-H460 lung = test system: NCI-H460 lung
UACC-257 melanoma = test system: UACC-257 melanoma
ACHN renal = test system: ACHN renal
SN12C renal = test system: SN12C renal
IGROV1 ovarian = test system: IGROV1 ovarian
HOP-62 NSCLC = test system: HOP-62 NSCLC
MALME-3M melanoma = test system: MALME-3M melanoma
A498 renal = test system: A498 renal
786-0 renal = test system: 786-0 renal
SW-620 colon = test system: SW-620 colon
DU-145 prostate = test system: DU-145 prostate
SF-268 CNS = test system: SF-268 CNS
MOLT-4 leukemia = test system: MOLT-4 leukemia
MDA-MB-231 breast = test system: MDA-MB-231 breast
UACC-62 melanoma = test system: UACC-62 melanoma
SK-MEL-2 melanoma = test system: SK-MEL-2 melanoma
HOP-92 NSCLC = test system: HOP-92 NSCLC
KM12 colon = test system: KM12 colon
OVCAR-8 ovarian = test system: OVCAR-8 ovarian
SF-295 CNS = test system: SF-295 CNS
SNB-75 CNS = test system: SNB-75 CNS
HT29 colon = test system: HT29 colon
T-47D breast = test system: T-47D breast
NCI-H226 lung = test system: NCI-H226 lung
SF-539 CNS = test system: SF-539 CNS
U251 CNS = test system: U251 CNS
RPMI-8226 leukemia = test system: RPMI-8226 leukemia
K-562 leukemia = test system: K-562 leukemia
HCT-15 colon = test system: HCT-15 colon
HCC-2998 colon = test system: HCC-2998 colon
NCI-H522 lung = test system: NCI-H522 lung
MDA-MB-435 = test system: MDA-MB-435
NCI-H23 lung = test system: NCI-H23 lung
COLO 205 colon = test system: COLO 205 colon
CCRF-CEM leukemia = test system: CCRF-CEM leukemia
MCF7 breast = test system: MCF7 breast
SNB-19 CNS = test system: SNB-19 CNS
SK-MEL-28 melanoma = test system: SK-MEL-28 melanoma
M14 melanoma = test system: M14 melanoma
OVCAR-5 ovarian = test system: OVCAR-5 ovarian

## Nc1nc2cc(CC[C@H]3C[C@@H](n4ccc5c(N)ncnc54)[C@H](O)[C@@H]3O)ccc2cc1Br
SR leukemia
  GI50: 18.7 µM
  TGI: > 100 µM
PC-3 prostate
  GI50: 11 µM
  TGI: 25.9 µM
TK-10 renal
  GI50: 12.2 µM
  TGI: 26.3 µM
A549 NSCLC
  GI50: 12.4 µM
  TGI: 34.3 µM
RXF 393 renal
  GI50: 6.95 µM
  TGI: 22.9 µM
NCI/ADR-RES ovarian
  GI50: 10.5 µM
  TGI: 26.9 µM
UO-31 renal
  GI50: 2.92 µM
  TGI: 18 µM
OVCAR-3 ovarian
  GI50: 10 µM
  TGI: 26.1 µM
HL-60(TB) leukemia
  GI50: 14.1 µM
  TGI: 38.5 µM
SK-OV-3 ovarian
  GI50: 13.4 µM
  TGI: 39.2 µM
BT-549 breast
  GI50: 2.41 µM
  TGI: 16 µM
SK-MEL-5 melanoma
  GI50: 0.579 µM
  TGI: 2.98 µM
CAKI-1 renal
  GI50: 4.38 µM
  TGI: 21.9 µM
EKVX NSCLC
  GI50: 4.22 µM
  TGI: 22 µM
OVCAR-4 ovarian
  GI50: 2.06 µM
  TGI: 19.1 µM
HS 578T breast
  GI50: 14.1 µM
  TGI: 36.8 µM
HCT-116 colon
  GI50: 2.45 µM
  TGI: 19.9 µM
LOX IMVI melanoma
  GI50: 3.95 µM
  TGI: 22.6 µM
NCI-H460 lung
  GI50: 10.9 µM
  TGI: 26.5 µM
UACC-257 melanoma
  GI50: 3.68 µM
  TGI: 19 µM
ACHN renal
  GI50: 12.3 µM
  TGI: 28.5 µM
SN12C renal
  GI50: 8.59 µM
  TGI: 22.4 µM
IGROV1 ovarian
  GI50: 10.2 µM
  TGI: 23.1 µM
HOP-62 NSCLC
  GI50: 8.91 µM
  TGI: 24.2 µM
MALME-3M melanoma
  GI50: 7.42 µM
  TGI: 21.5 µM
A498 renal
  GI50: 2.38 µM
  TGI: 18.9 µM
786-0 renal
  GI50: 12.7 µM
  TGI: 28.9 µM
SW-620 colon
  GI50: 13.3 µM
  TGI: 27.7 µM
DU-145 prostate
  GI50: 13.1 µM
  TGI: 27 µM
SF-268 CNS
  GI50: 11.3 µM
  TGI: 27 µM
MOLT-4 leukemia
  GI50: 2.43 µM
  TGI: 64.3 µM
MDA-MB-231 breast
  GI50: 11.1 µM
  TGI: 24.4 µM
UACC-62 melanoma
  GI50: 8.95 µM
  TGI: 21.7 µM
SK-MEL-2 melanoma
  GI50: 10.9 µM
  TGI: 25.1 µM
HOP-92 NSCLC
  GI50: 6.66 µM
  TGI: 39.9 µM
KM12 colon
  GI50: 11 µM
  TGI: 25.9 µM
OVCAR-8 ovarian
  GI50: 7.73 µM
  TGI: 34.1 µM
SF-295 CNS
  GI50: 3.25 µM
  TGI: 19 µM
SNB-75 CNS
  GI50: 4 µM
  TGI: 19.1 µM
HT29 colon
  GI50: 2.46 µM
  TGI: 24.3 µM
T-47D breast
  GI50: 0.785 µM
  TGI: 27.2 µM
NCI-H226 lung
  GI50: 2.71 µM
  TGI: 26.8 µM
SF-539 CNS
  GI50: 13.2 µM
  TGI: 27.6 µM
U251 CNS
  GI50: 13 µM
  TGI: 29.8 µM
RPMI-8226 leukemia
  GI50: 4.92 µM
  TGI: 57.2 µM
K-562 leukemia
  GI50: 1.38 µM
  TGI: > 100 µM
HCT-15 colon
  GI50: 11.3 µM
  TGI: 25.6 µM
HCC-2998 colon
  GI50: 11.2 µM
  TGI: 24.4 µM
NCI-H522 lung
  GI50: 9.26 µM
  TGI: 28.8 µM
MDA-MB-435
  GI50: 4.34 µM
  TGI: 18.4 µM
NCI-H23 lung
  GI50: 2.07 µM
  TGI: 23.9 µM
COLO 205 colon
  GI50: 11.3 µM
  TGI: 37.3 µM
CCRF-CEM leukemia
  GI50: 12.3 µM
  TGI: > 100 µM
MCF7 breast
  GI50: 1.82 µM
  TGI: 19.1 µM
SNB-19 CNS
  GI50: 7.09 µM
  TGI: 23.5 µM
SK-MEL-28 melanoma
  GI50: 12.2 µM
  TGI: 25.4 µM
M14 melanoma
  GI50: 11.4 µM
  TGI: 25.6 µM
OVCAR-5 ovarian
  GI50: 14.2 µM
  TGI: 30.1 µM
